According to US20030104079A1, “Skin tissue regeneration promoters comprising ginsenoside Rb1” (Japan Science and Technology Corporation, Japan, priority 2000, published 2003):
“Also recorded” adds a separate entry of the source.

System: open wound of rat skin
Assay: Open wound healing by external or topical application to skin (propet ointment)
Type: in vivo, rats
Source text: For that purpose, for example, by using Wistar male rats (body weight about 300 g), the punch biopsies with diameter 6 mm were made in the dorsal region of animals after shaving under inhalation anesthesia to prepare 3 regions of open wound. Among them, 0.1 g of ophthalmic white Vaseline (Propet) containing 0.01% by weight or 0.001% by weight of ginsenoside Rb1 was spread once for every day in two regions, and in the remaining open wound, the equal amount of ophthalmic white Vaseline (propet) was spread. Nine days after preparing open wound, the skin including wound regions was photographed. Further, we have examined the effects of external or topical cutaneous spread of 0.0001% by weight, 0.00001% by weight or 0.000001% by weight of ginsenoside Rb1 by the same procedure. Experimental animals were euthanized by anesthetia immediately before photographing, then wound regions were dissected out after photographing or after dissecting out wound regions, photographing was performed. Thereafter, the wound region tissues were stored in the fixative. FIG. 5 and FIG. 6 are photographs in place of drawings.
The punch biopsy with diameter 6 mm was performed in the dorsal 6 regions of each animal under inhalation anesthesia to prepare open wound. Thereafter, 0.1 g of propet (ophthalmic white vaseline) containing ginsenoside Rb1 at the concentrations of 0.0001% by weight (10^−4% by weight), 0.00001% by weight (10^−5% by weight), 0.000001% by weight (10^−6% by weight), 0.0000001% by weight (10^−7% by weight) and 0.00000001% by weight (10^−8% by weight), respectively, was applied externally, once a day, for 9 days on each open wound. The equal amount of propet alone was applied externally or topically in the control animals. Then, immediately after euthanasia by anesthetization, the skin containing the open wound was dissected out and photographed. The collected skin tissue was preserved in a fixative. FIG. 12 is a photograph in place of drawing.
In each case, there are three wounds on the left side and three wounds on the right side, totally 6 marks of open wounds.
In the experimental cases hereinbefore explained, an area of open wound (flair region) applied externally only with propet is set as a denominator and an area of open wound administered externally with ginsenoside Rb1 at concentrations from 10^−4% by weight to 10^−8% by weight is set as a numerator, and ratio thereof is calculated. In FIG. 13, n=3 and single asterisk (*) indicates significant difference, P<0.05, and two asterisks (**) indicate significant difference, P<0.01. Statistical test was performed according to Scheffe's post hoc test.
Details of dihydroginsenoside Rb1 is described in the specification of PCT/JP00/04102 (Brain cell or nerve cell protecting agents comprising ginseng). The punch biopsy with diameter 6 mm was performed at 5 places in the dorsal region of rats (n=4) under inhalation anesthesia to prepare open wound. Thereafter, 0.1 g of propet containing dihydroginsenoside Rb1 at concentrations of 0.0001% by weight (10^−4% by weight), 0.00001% by weight (10^−5% by weight), 0.000001% by weight (10^−6% by weight) and 0.0000001% by weight (10^−7% by weight), respectively, was applied topically or externally, once a day, for 9 days onto each open wound. The equal amount of propet alone was applied externally or topically in the control animals. Then, immediately after euthanasia by anesthetization, the skin containing the open wound was dissected out and photographed. The collected skin tissue was preserved in a fixative. FIG. 14 is a photograph in place of drawing. In FIG. 14, four cases are shown, and from the upper column, the first case, the second case, the third case and the fourth case are shown.

With CC(C)=CCC[C@](C)(O[C@@H]1O[C@H](CO[C@@H]2O[C@H](CO)[C@@H](O)[C@H](O)[C@H]2O)[C@@H](O)[C@H](O)[C@H]1O)[C@H]1CC[C@]2(C)[C@@H]1[C@H](O)C[C@@H]1[C@@]3(C)CC[C@H](O[C@@H]4O[C@H](CO)[C@@H](O)[C@H](O)[C@H]4O[C@@H]4O[C@H](CO)[C@@H](O)[C@H](O)[C@H]4O)C(C)(C)[C@@H]3CC[C@]12C [ginsenoside Rb1] as the compound, how does the “open wound reduction (FIG. 13)” value (0.0000001% by weight (10^−7% by weight) or less, i.e. 1 ng/g or less) read?
Its value is “reduced significantly the open wound”.

What about the “ratio of open wound area to propet alone (FIG. 13)” value (10^−4% to 10^−8% by weight, n=3, Scheffe's post hoc test) of the same compound?
Its value is “wound healing was significantly promoted”.

What about the “area of the open wound relative to control” value (concentrations around 10^−8% by weight) of the same compound?
The value was “about ¼”.

And the “growing hair in regions of wound healing (FIG. 12)” value (external administration of the low concentrations of ginsenoside Rb1)?
The value was “growing hair was obviously observed”.

And the “hair restoration or hair growth from regenerated open wound” value (extracutaneous administration of 0.000001% by weight)?
Its value is “obvious hair restoration or hair growth”.

What about the “area of open wound region relative to control” value (ginsenoside Rb1 at 0.0001%, 0.00001%, 0.000001%, 0.0000001% or 0.00000001% by weight) of the same compound?
Its value is “½-¼”.

And the “volume of the open wound relative to control” value (low concentrations, worked out from the area reduction)?
Its value is “about ⅛”.

What about the “effectiveness on open wound (FIG. 6)” value (propet containing 0.00001% or 0.000001% by weight, compared with 0.0001% by weight) of the same compound?
The value was “superior effectiveness as compared with propet containing 0.0001% by weight”.

What about the “open wound area vs propet alone (FIG. 5)” value (propet containing 0.001% by weight, 0.1 g once every day, day 9) of the same compound?
Its value is “slightly reduced”.

What about the “open wound vs propet alone control (FIG. 5)” value (propet containing 0.01% by weight, 0.1 g once every day, day 9) of the same compound?
Its value is “trivial; also recorded: no difference”.

What about the “wound healing vs propet alone (FIG. 12)” value (propet containing 10^−6% to 10^−8% by weight (10 ng/g to 100 pg/g), once a day for 9 days) of the same compound?
Its value is “wound healing was obviously promoted”.
